The numbers were not newly measured in patent publication EP0707853B1, “Muscle relaxant pharmaceutical compositions” (priority 1994, dated 1996), which cites them from elsewhere.

The conditions of this data set: for pI: isoionic point; for pI / pKa: Handbook of Chemistry and Physics, ed. 69, page C 107; for pKa: pKa values for basic groups; for isoionic point (pI): value given in the example text as the pH the solution is brought to.

With `C[C@H](N)C(=O)O` [alanine], the pI is 6,1 and the pKa is 9,87.
On to `NCC(=O)O` [glycine], for which the pI was 6,06 and the “isoionic point (pI)” value is 6.1.
As for `O=C(O)[C@@H]1C[C@@H](O)CN1` [hydroxyproline], the pI was 5,82 and the pKa was 9,73.
Turning to `CSCC[C@H](N)C(=O)O` [methionine], the pI is 5,91 and the pKa is 10,6.
Take `O=C(O)[C@@H]1CCCN1` [proline]: the pI was 6,3 and the pKa is given as 9,87.
`N[C@@H](CO)C(=O)O` [serine]: the pI was 5,68, the pKa is 9,15 and the “isoionic point (pI)” value is on record as 5.67.
As for `CC(C)[C@H](N)C(=O)O` [valine], the pI is given as 6,0 and the pKa is 9,72.
